Experimental data taken from patent US20240041042A1, “1-(PYRIDYL)-5-AZINYLPYRAZOLE DERIVATIVES, AND THEIR USE FOR CONTROL OF UNDESIRED PLANT GROWTH” (Bayer Aktiengesellschaft, priority 2020, published 2024).
Where two headings read alike, the source gives them in different places.

How the values were obtained:
Assay type in all cases: in vivo
[1] = system: Echinochloa crus-galli (ECHCG); assay: Post-emergence herbicidal action against ECHCG; settings: dosage 320 g/ha
How it was run: (§1)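 Greenhouse plants sprayed at the one-leaf stage, 2–3 weeks after sowing, with WP or EC formulations plus 0.5% additive at 600 l/ha water. Activity rated visually after about 3 weeks versus untreated controls (100% = dead, 0% = like control), at 320 g/ha or lower.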

Lolium rigidum (LOLRI) [2] = assay: Post-emergence herbicidal action against LOLRI; settings: dosage 320 g/ha
How it was run: as §1

Setaria viridis (SETVI) [3] = assay: Pre-emergence herbicidal action against SETVI; settings: dosage 320 g/ha
How it was run: (§2)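 Application rates ran to 320 g/ha or lower, with several dosages tested on the same weeds. The compound, as wettable powder or emulsion concentrate, is sprayed pre-emergence onto soil over sown seeds; greenhouse growth follows, and effect is rated visually after roughly 3 weeks.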

Oryza sativa (ORYSA) [4] = settings: crop plant compatibility, effect in comparison to untreated controls
How it was run: (§3)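 Foliar application at the one-leaf stage: WP/EC formulation, 0.5% additive, 600 l/ha water. Greenhouse-grown in sandy loam. Endpoint is visual % injury relative to untreated controls at about 3 weeks.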

Zea mays (ZEAMX) [5] = settings: crop plant compatibility, effect vs untreated controls
How it was run: as §3

[6] = system: Triticum aestivum (TRZAS); settings: crop plant compatibility, effect vs untreated controls
How it was run: as §3

[7] = system: Matricaria inodora (MATIN); assay: Pre-emergence herbicidal action against MATIN; settings: dosage 320 g/ha
How it was run: as §2

[8] = system: Pharbitis purpurea (PHBPU); assay: Post-emergence herbicidal action against PHBPU
How it was run: as §1

[9] = system: Pharbitis purpurea (PHBPU); assay: Pre-emergence herbicidal action against PHBPU; settings: dosage 320 g/ha
How it was run: as §2

Oryza sativa (ORYSA) [10] = settings: pre-emergence, crop plant compatibility, in comparison to untreated controls
How it was run: (§4)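 Crop injury rated visually in percent against untreated plants roughly 3 weeks after treatment (0% no effect, 100% plants dead). Compounds, as WP or EC with 0.5% additive in 600 l/ha water, were applied to the covering soil right after sowing; greenhouse growth. Suffixes a, b, c denote different dosages.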

Zea mays (ZEAMX) [11] = settings: pre-emergence, 80 g/ha, crop plant compatibility, in comparison to untreated controls
How it was run: as §4

[12] = system: Triticum aestivum (TRZAS); settings: pre-emergence, crop plant compatibility, in comparison to untreated controls
How it was run: as §4

[13] = system: Verconica persica (VERPE); assay: Post-emergence herbicidal action against VERPE
How it was run: as §1

Lolium rigidum (LOLRI) [14] = assay: Pre-emergence herbicidal action against LOLRI; settings: dosage 320 g/ha
How it was run: as §2

[15] = system: Amaranthus retroflexus (AMARE); assay: Pre-emergence herbicidal action against AMARE; settings: 320 g/ha, visual scoring after about 3 weeks vs untreated controls
How it was run: as §2

Setaria viridis (SETVI) [16] = assay: Post-emergence herbicidal action against SETVI; settings: dosage 320 g/ha
How it was run: as §1

[17] = system: Alopecurus myosuroides (ALOMY); assay: Post-emergence herbicidal action against ALOMY; settings: 320 g/ha, visual rating about 3 weeks after treatment vs untreated controls (100% = plants have died, 0% = like control plants)
How it was run: as §1

[18] = system: Alopecurus myosuroides (ALOMY); assay: Pre-emergence herbicidal action against ALOMY; settings: 320 g/ha; scored visually after about 3 weeks; 100% = plants have died
How it was run: as §2

[19] = system: Abutilon theophrasti (ABUTH); assay: Post-emergence herbicidal action against ABUTH; settings: 320 g/ha, visual rating about 3 weeks after treatment vs untreated controls (100% = plants have died, 0% = like control plants)
How it was run: as §1

[20] = system: Amaranthus retroflexus (AMARE); assay: Post-emergence herbicidal action against AMARE; settings: 320 g/ha, visual rating about 3 weeks after treatment
How it was run: as §1

[21] = system: Polygonum convolvulus (POLCO); assay: Post-emergence herbicidal action against POLCO; settings: dosage 320 g/ha
How it was run: as §1

[22] = system: Verconica persica (VERPE); assay: Pre-emergence herbicidal action against VERPE
How it was run: as §2

[23] = system: Echinochloa crus-galli (ECHCG); assay: Pre-emergence herbicidal action against ECHCG; settings: dosage 320 g/ha
How it was run: as §2

Viola tricolor (VIOTR) = assay: Post-emergence herbicidal action against VIOTR; settings: 320 g/ha
How it was run: as §1

With `COC(=O)CCOC(=O)COc1nn(-c2cccc(C)n2)c(-c2ccc(F)nc2)c1Br` [Example I-278] the “Post-emergence action against ECHCG in %” value [1] was 80%, the “Post-emergence action against LOLRI in %” value (Lolium rigidum (LOLRI) [2]) was 80% and the “Pre-emergence action against SETVI in %” value (Setaria viridis (SETVI) [3]) was 100%. For the same molecule, the “Post-emergence action against ORYSA in %” value (Oryza sativa (ORYSA) [4]; 80 g/ha) was 0%, the “Post-emergence action against ORYSA in %” value (Oryza sativa (ORYSA) [4]; 320 g/ha) was 10% and the “Post-emergence action against ZEAMX in %” value (Zea mays (ZEAMX) [5]; 80 g/ha) was 20%. For the same molecule, the “Post-emergence action against TRZAS in %” value ([6]; 80 g/ha) was 0%, the “Pre-emergence action against MATIN in %” value [7] was 80% and the “Post-emergence action against PHBPU in %” value ([8]; dosage 80 g/ha) was 80%. For the same molecule, the “Post-emergence action against PHBPU in %” value ([8]; dosage 320 g/ha) was 80%, the “Pre-emergence action against PHBPU in %” value [9] was 80% and the “Pre-emergence action against ORYSA in %” value (Oryza sativa (ORYSA) [10]; 80 g/ha) was 0%. The “Pre-emergence action against ZEAMX in %” value (Zea mays (ZEAMX) [11]) was 0%, the “Pre-emergence action against TRZAS in %” value ([12]; 80 g/ha) was 0% and the “Post-emergence action against VERPE in %” value ([13]; 320 g/ha, VERPE) was 90%. The “Post-emergence action against VERPE in %” value ([13]; dosage 80 g/ha) was 80%, the “Pre-emergence action against LOLRI in %” value (Lolium rigidum (LOLRI) [14]) was 80% and the “Pre-emergence action against AMARE in %” value [15] was 80%. For the same molecule, the “Post-emergence action against SETVI in %” value (Setaria viridis (SETVI) [16]) was 90%.
In the case of `COC(=O)CNC(=O)COc1nn(-c2cccc(C)n2)c(-c2ccc(F)nc2)c1Br` [Example I-357], the “Post-emergence action against ORYSA in %” value (Oryza sativa (ORYSA) [4]; 80 g/ha) was 0%, the “Post-emergence action against ORYSA in %” value (Oryza sativa (ORYSA) [4]; 320 g/ha) was 10% and the “Post-emergence action against ZEAMX in %” value (Zea mays (ZEAMX) [5]; 80 g/ha) was 0%. For the same molecule, the “Post-emergence action against ZEAMX in %” value (Zea mays (ZEAMX) [5]; 320 g/ha) was 10%, the “Post-emergence action against TRZAS in %” value ([6]; 80 g/ha) was 10% and the “Post-emergence action against TRZAS in %” value ([6]; 320 g/ha) was 10%. The “Post-emergence action against PHBPU in %” value ([8]; dosage 80 g/ha) was 80%, the “Post-emergence action against PHBPU in %” value ([8]; dosage 320 g/ha) was 80% and the “Pre-emergence action against ORYSA in %” value (Oryza sativa (ORYSA) [10]; 80 g/ha) was 20%. The “Pre-emergence action against ORYSA in %” value (Oryza sativa (ORYSA) [10]; 320 g/ha) was 20%, the “Pre-emergence action against ZEAMX in %” value (Zea mays (ZEAMX) [11]) was 20% and the “Pre-emergence action against TRZAS in %” value ([12]; 80 g/ha) was 10%. The “Pre-emergence action against TRZAS in %” value ([12]; 320 g/ha) was 10% and the “Post-emergence action against SETVI in %” value (Setaria viridis (SETVI) [16]) was 80%.
For `Cc1cccc(-n2nc(OCC(=O)O)c(Br)c2-c2ccc(F)nc2)n1` [Example I-376], the “Post-emergence action against ECHCG in %” value [1] was 90%, the “Post-emergence action against LOLRI in %” value (Lolium rigidum (LOLRI) [2]) was 90% and the “Pre-emergence action against SETVI in %” value (Setaria viridis (SETVI) [3]) was 100%. For the same molecule, the “Post-emergence action against ORYSA in %” value (Oryza sativa (ORYSA) [4]; 80 g/ha) was 0%, the “Post-emergence action against ORYSA in %” value (Oryza sativa (ORYSA) [4]; 320 g/ha) was 20% and the “Post-emergence action against ZEAMX in %” value (Zea mays (ZEAMX) [5]; 80 g/ha) was 10%. For the same molecule, the “Post-emergence action against TRZAS in %” value ([6]; 80 g/ha) was 0%, the “Post-emergence action against TRZAS in %” value ([6]; 320 g/ha) was 20% and the “Post-emergence action against ALOMY in %” value [17] was 80%. The “Pre-emergence action against ALOMY” value [18] was 80%, the “Pre-emergence action against MATIN in %” value [7] was 80% and the “Post-emergence action against ABUTH in %” value [19] was 80%. For the same molecule, the “Post-emergence action against PHBPU in %” value ([8]; dosage 320 g/ha) was 80%, the “Pre-emergence action against PHBPU in %” value [9] was 90% and the “Pre-emergence action against ORYSA in %” value (Oryza sativa (ORYSA) [10]; 80 g/ha) was 20%. The “Pre-emergence action against ZEAMX in %” value (Zea mays (ZEAMX) [11]) was 10%, the “Pre-emergence action against TRZAS in %” value ([12]; 80 g/ha) was 10% and the “Post-emergence action against VERPE in %” value ([13]; 320 g/ha, VERPE) was 80%. For the same molecule, the “Pre-emergence action against LOLRI in %” value (Lolium rigidum (LOLRI) [14]) was 90%, the “Post-emergence action against AMARE in %” value [20] was 80% and the “Post-emergence action against POLCO in %” value [21] was 80%. For the same molecule, the “Pre-emergence action against VERPE in %” value ([22]; dosage 80 g/ha) was 80%, the “Pre-emergence action against VERPE in %” value ([22]; dosage 320 g/ha) was 80% and the “Pre-emergence action against AMARE in %” value [15] was 90%. The “Post-emergence action against SETVI in %” value (Setaria viridis (SETVI) [16]) was 80%, the “Pre-emergence action against ECHCG in %” value [23] was 90% and the “Post-emergence action against VIOTR in %” value (Viola tricolor (VIOTR)) was 80%.
For `O=C(O)COc1nn(-c2ccnc(F)c2)c(-c2ccc(F)nc2)c1Br` [III-02], the “Pre-emergence action against SETVI in %” value (Setaria viridis (SETVI) [3]) was 80%, the “Post-emergence action against ORYSA in %” value (Oryza sativa (ORYSA) [4]; 80 g/ha) was 0% and the “Post-emergence action against ORYSA in %” value (Oryza sativa (ORYSA) [4]; 320 g/ha) was 20%. For the same molecule, the “Post-emergence action against ZEAMX in %” value (Zea mays (ZEAMX) [5]; 80 g/ha) was 10%, the “Post-emergence action against ZEAMX in %” value (Zea mays (ZEAMX) [5]; 320 g/ha) was 20% and the “Post-emergence action against TRZAS in %” value ([6]; 80 g/ha) was 20%. The “Pre-emergence action against ORYSA in %” value (Oryza sativa (ORYSA) [10]; 80 g/ha) was 0%, the “Pre-emergence action against ORYSA in %” value (Oryza sativa (ORYSA) [10]; 320 g/ha) was 0% and the “Pre-emergence action against ZEAMX in %” value (Zea mays (ZEAMX) [11]) was 20%. The “Pre-emergence action against TRZAS in %” value ([12]; 80 g/ha) was 0%, the “Pre-emergence action against TRZAS in %” value ([12]; 320 g/ha) was 20% and the “Post-emergence action against AMARE in %” value [20] was 80%. For the same molecule, the “Pre-emergence action against AMARE in %” value [15] was 80%.
